# Results: US20080009511A1, “Cancer treatment with compounds inhibiting PKC alpha” (priority 2004, published 2008)
# Experiments:
# [1] = tested on: A431 human epidermoid carcinoma cells; assay: Cell viability assay (trypan blue dye exclusion), viable cells counted at day 6; assay type: cell-based; settings: 10 micromoles
# Protocol: (§1) The following cancer cells were maintained in Dulbecco's modified Eagle medium (DMEM) supplemented with 10 percent bovine calf serum. Cells were seeded for 24 hours. Then they were treated with PKC inhibitors or left untreated. The cells were then collected periodically and evaluated using trypan blue dye exclusion to assess viability using the method described by C Y Chen, et al., in J. Biol. Chem. 273:16700-16709. Cultures containing about 4×10^4 cells were treated with 5 micromoles of Gö7874 (except that PC3 prostate cancer cells were treated with 10 micromoles) and the viable cells were counted at day 6. […] Cultures containing about 4×10^4 cells were treated with or without 10 micromoles of Gö6850 and the viable cells were counted at day 6. […] Cultures containing about 4×10^4 cells were treated with or without 10 micromoles of NGIC-I and the viable cells were counted at day 6. […] Cultures containing about 4×10^4 cells were treated with or without 10 micromoles of Ro31-7549 and the viable cells were counted at day 6. […] Cultures containing about 4×10^4 cells were treated with or without 10 micromoles of Ro31-8220 and the viable cells were counted at day 6. […] Cultures containing about 4×10^4 cells were treated with or without 10 micromoles of Ro31-8425 and the viable cells were counted at day 6. […] Cultures containing about 4×10^4 cells were treated with or without 10 micromoles of Ro31-0432 and the viable cells were counted at day 6.
# [2] = tested on: AGS human gastric cancer cells; assay: as above; assay type: cell-based; settings: 10 micromoles
# Protocol: as §1
# [3] = tested on: H460 human lung cancer cells; assay: as above; assay type: cell-based; settings: 10 micromoles
# Protocol: as §1
# [4] = tested on: HT29 human colon cancer cells; assay: as above; assay type: cell-based; settings: 10 micromoles
# Protocol: as §1
# [5] = tested on: Hela human cervical cancer cells; assay: as above; assay type: cell-based; settings: 10 micromoles
# Protocol: as §1
# [6] = tested on: HepG2 human liver cancer cells; assay: as above; assay type: cell-based; settings: 10 micromoles
# Protocol: as §1
# [7] = tested on: Jurkat cells (a human acute T-cell leukemia cell line); assay: as above; assay type: cell-based; settings: 10 micromoles
# Protocol: as §1
# [8] = tested on: MDA-MB-468 human breast cancer cells; assay: as above; assay type: cell-based; settings: 10 micromoles
# Protocol: as §1
# [9] = tested on: NBT-II human bladder cancer cells; assay: as above; assay type: cell-based; settings: 10 micromoles
# Protocol: as §1
# [10] = tested on: PANC-1 human pancreatic carcinoma cells; assay: as above; assay type: cell-based; settings: 10 micromoles
# Protocol: as §1
# [11] = tested on: PC3 human prostate cancer cells; assay: as above; assay type: cell-based; settings: 10 micromoles
# Protocol: as §1
# [12] = tested on: U251 human glioma cells; assay: as above; assay type: cell-based; settings: 10 micromoles
# Protocol: as §1
# [13] = tested on: KB oral cancer cells; assay: as above; assay type: cell-based, human; settings: 10 micromoles
# Protocol: as §1
# [14] = tested on: human cancer cells; assay: Cell viability assay, summary over the panel of cancer cells; assay type: cell-based; settings: 10 micromoles; day 6; cell lines not named as going to apoptosis
# Protocol: The following cancer cells were maintained in Dulbecco's modified Eagle medium (DMEM) supplemented with 10 percent bovine calf serum. Cells were seeded for 24 hours. Then they were treated with PKC inhibitors or left untreated. The cells were then collected periodically and evaluated using trypan blue dye exclusion to assess viability using the method described by C Y Chen, et al., in J. Biol. Chem. 273:16700-16709. Cultures containing about 4×10^4 cells were treated with or without 10 micromoles of Gö6850 and the viable cells were counted at day 6. […] Cultures containing about 4×10^4 cells were treated with or without 10 micromoles of NGIC-I and the viable cells were counted at day 6. […] Cultures containing about 4×10^4 cells were treated with or without 10 micromoles of Ro31-7549 and the viable cells were counted at day 6. […] Cultures containing about 4×10^4 cells were treated with or without 10 micromoles of Ro31-8220 and the viable cells were counted at day 6. […] Cultures containing about 4×10^4 cells were treated with or without 10 micromoles of Ro31-8425 and the viable cells were counted at day 6. […] Cultures containing about 4×10^4 cells were treated with or without 10 micromoles of Ro31-0432 and the viable cells were counted at day 6.
# [15] = tested on: 3Y1 rat fibroblast cells overexpressing EGF receptors (3Y1-EGFR cells); assay: EGF-induced cell transformation (transformed morphology); assay type: cell-based; settings: 1 micromole
# [16] = tested on: 3Y1 rat fibroblast cells overexpressing the epidermal growth factor receptor (EGFR); assay: Soft agar/cell transformation assay; assay type: cell-based; settings: 1 micromole with EGF (100 ng/ml), in contrast to EGF alone
# Description: 1×10^3 3Y1 rat fibroblast cells overexpressing the epidermal growth factor receptor (EGFR) were suspended in top agar (consisting of 20 percent calf serum, 0.38 percent agar and the remainder DMEM) and overlaid onto bottom agar (DMEM, 20 percent calf serum and 0.7 percent agar) as reported by Sementchenko et al., in Onocgen 17:2883-2888.
# [17] = about 4×10^4 cells seeded, untreated 3.8 ± 0.4
smiles,measurement,setting,value
Cl.Cn1cc(C2=C(c3c4n(c5ccccc35)CCC(CN)C4)C(=O)NC2=O)c2ccccc21 (centres unmarked) [Ro31-8425],Treated (cell number × 10^5),"[1]; about 4×10^4 cells seeded, untreated 5.4 ± 0.4",2.6 × 10^5
same,% inhibiton,[1]; growth vs untreated,52%
same,cells that went to apoptosis upon treatment,[2],all
same,Treated (cell number × 10^5),"[2]; about 4×10^4 cells seeded, untreated 2.4 ± 0.3",0 × 10^5
same,% inhibiton,[2]; growth vs untreated,"* (indicates the inhibitor causes significant cell death, and cell number is less than originally seeded cell number.)"
same,cells that went to apoptosis upon treatment,[3],all
same,Treated (cell number × 10^5),"[3]; about 4×10^4 cells seeded, untreated 2.4 ± 0.2",0 × 10^5
same,% inhibiton,[3]; growth vs untreated,"* (indicates the inhibitor causes significant cell death, and cell number is less than originally seeded cell number.)"
same,Treated (cell number × 10^5),[4]; [17],0.6 × 10^5
same,% inhibiton,[4]; growth vs untreated,85%
same,cells that went to apoptosis upon treatment,[5],all
same,Treated (cell number × 10^5),"[5]; about 4×10^4 cells seeded, untreated 3.4 ± 0.4",0 × 10^5
same,% inhibiton,[5]; growth vs untreated,"* (indicates the inhibitor causes significant cell death, and cell number is less than originally seeded cell number.)"
same,Treated (cell number × 10^5),"[6]; about 4×10^4 cells seeded, untreated 4.2 ± 0.4",0.4 × 10^5
same,% inhibiton,[6]; growth vs untreated,90%
same,cells that went to apoptosis upon treatment,[7],significant number
same,Treated (cell number × 10^5),"[7]; about 4×10^4 cells seeded, untreated 8.8 ± 0.4",0.3 × 10^5
same,% inhibiton,[7]; growth vs untreated,"* (indicates the inhibitor causes significant cell death, and cell number is less than originally seeded cell number.)"
same,cells that went to apoptosis upon treatment,[8],significant number
same,Treated (cell number × 10^5),"[8]; about 4×10^4 cells seeded, untreated 6.1 ± 0.4",0.1 ± 0.05 × 10^5
same,% inhibiton,[8]; growth vs untreated,"* (indicates the inhibitor causes significant cell death, and cell number is less than originally seeded cell number.)"
same,cells that went to apoptosis upon treatment,[9],significant number
same,Treated (cell number × 10^5),"[9]; about 4×10^4 cells seeded, untreated 2.9 ± 0.4",0.3 × 10^5
same,% inhibiton,[9]; growth vs untreated,"* (indicates the inhibitor causes significant cell death, and cell number is less than originally seeded cell number.)"
same,cells that went to apoptosis upon treatment,[10],all
same,Treated (cell number × 10^5),"[10]; about 4×10^4 cells seeded, untreated 2.1 ± 0.3",0 × 10^5
same,% inhibiton,[10]; growth vs untreated,"* (indicates the inhibitor causes significant cell death, and cell number is less than originally seeded cell number.)"
same,Treated (cell number × 10^5),"[11]; about 4×10^4 cells seeded, untreated 7.1 ± 0.3",3 × 10^5
same,% inhibiton,[11]; growth vs untreated,53%
same,Treated (cell number × 10^5),"[12]; about 4×10^4 cells seeded, untreated 9.6 ± 0.5",1.4 × 10^5
same,% inhibiton,[12]; growth vs untreated,85%
same,cells that went to apoptosis upon treatment,[13],all
same,Treated (cell number × 10^5),[13]; [17],0 × 10^5
same,% inhibiton,[13]; growth vs untreated,"* (indicates the inhibitor causes significant cell death, and cell number is less than originally seeded cell number.)"
same,"inhibition of growth in contrast to untreated cells, range over the other treated cancer cells",[14],52-90%
same,cell apoptosis during co-treatment,[15]; co-treatment with 100 ng/ml EGF,without detected cell apoptosis
same,effect on EGF-induced transformed morphology,[15]; co-treatment with 100 ng/ml EGF for 48 hours,partially blocked
same,reduction of colony number in soft agar,[16],72%
